# How the values were obtained:
# [1] = molecular target: T1, full-length human Mineralocorticoid Receptor (MR) (Homo sapiens, UniProt P08235); assay: human MR NH Pro assay (PathHunter Protein:Protein interaction assay), MR antagonism; type: cell-based; conditions: IP = inflection point of the dose-response curve; CHO-K1 cells overexpressing human MR, aldosterone about 0.3 nM to about 1 nM, 6 hours at 37° C.
# T1 construct: host or cells: PathHunter CHO-K1 MR cells
# T1 sequence (P08235 1-984): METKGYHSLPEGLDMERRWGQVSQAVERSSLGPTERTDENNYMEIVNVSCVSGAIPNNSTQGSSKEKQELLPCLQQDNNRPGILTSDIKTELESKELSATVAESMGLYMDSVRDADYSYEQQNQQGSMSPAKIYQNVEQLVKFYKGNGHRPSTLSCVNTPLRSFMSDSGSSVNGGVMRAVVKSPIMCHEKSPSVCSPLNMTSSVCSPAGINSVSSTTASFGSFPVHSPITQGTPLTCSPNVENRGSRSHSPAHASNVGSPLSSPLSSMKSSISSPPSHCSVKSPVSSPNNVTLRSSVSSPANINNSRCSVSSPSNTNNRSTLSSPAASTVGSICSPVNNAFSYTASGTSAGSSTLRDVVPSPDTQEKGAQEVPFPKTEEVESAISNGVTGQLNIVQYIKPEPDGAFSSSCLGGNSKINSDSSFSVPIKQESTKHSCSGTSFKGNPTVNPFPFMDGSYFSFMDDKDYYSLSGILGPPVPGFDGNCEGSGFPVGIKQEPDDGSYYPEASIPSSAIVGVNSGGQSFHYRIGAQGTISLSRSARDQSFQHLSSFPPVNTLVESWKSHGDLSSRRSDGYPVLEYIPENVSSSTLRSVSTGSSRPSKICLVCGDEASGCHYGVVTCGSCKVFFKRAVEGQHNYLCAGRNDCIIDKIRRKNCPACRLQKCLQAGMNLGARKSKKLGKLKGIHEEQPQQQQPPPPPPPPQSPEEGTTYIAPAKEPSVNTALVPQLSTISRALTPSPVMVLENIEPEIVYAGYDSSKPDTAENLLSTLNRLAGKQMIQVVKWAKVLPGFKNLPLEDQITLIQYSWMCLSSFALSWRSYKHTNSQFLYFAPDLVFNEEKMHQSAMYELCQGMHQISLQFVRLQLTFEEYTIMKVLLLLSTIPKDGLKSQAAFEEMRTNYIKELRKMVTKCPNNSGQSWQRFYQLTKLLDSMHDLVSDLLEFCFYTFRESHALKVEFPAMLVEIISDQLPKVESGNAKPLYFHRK
# In short: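 PathHunter CHO-K1 MR cells (10K/well) plated overnight at 37°C, 5% CO2, then exposed 6 h to a 10-point titration starting at 36.7 μM final, in duplicate, DMSO <1%. MR–coactivator peptide interaction read by luminescence after 1 h with DiscoveRx detection reagent at room temperature.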
# [2] = Hepatocyte stability, human; type: in vitro ADME; conditions: for half-life: human, hepatocytes, read-out: Hepatocyte Stability (t1/2)
# [3] = Liver microsome stability, rhesus monkey; type: in vitro ADME; conditions: liver microsomes, read-out: Liver Microsome Stability (t1/2)
# [4] = Metabolic stability in liver microsome and hepatocytes of multiple animal species (overall statement); type: in vitro ADME
# [5] = Liver microsome stability, human; type: in vitro ADME; conditions: for Liver Microsome Stability (t1/2): Human
# [6] = Liver microsome stability, rat; type: in vitro ADME; conditions: liver microsomes, read-out: Liver Microsome Stability (t1/2)
# [7] = Hepatocyte stability, rhesus monkey; type: in vitro ADME; conditions: hepatocytes, read-out: Hepatocyte Stability (t1/2)
# [8] = Hepatocyte stability, rat; type: in vitro ADME; conditions: hepatocytes, read-out: Hepatocyte Stability (t1/2)
# [9] = Hepatocyte stability, dog; type: in vitro ADME; conditions: hepatocytes, read-out: Hepatocyte Stability (t1/2)
# [10] = Liver microsome stability, dog; type: in vitro ADME; conditions: liver microsomes, read-out: Liver Microsome Stability (t1/2)
# [11] = PK profile in rats; type: in vivo, rat; conditions: for bioavailability / clearance / half-life: rat, in vivo; for bioavailability: oral
Structure (SMILES),IC50 [1] [nM],half-life [2] [min],half-life [3] [min],metabolic stability in liver microsome and hepatocytes of multiple animal species (in words) [4],Liver Microsome Stability (t1/2) [5] [min],half-life [6] [min],half-life [7] [min],half-life [8] [min],half-life [9] [min],half-life [10] [min],Cl [11] [mL/min/kg],PK profile in rats (in words) [11],t1/2 [11] [h],AUCN po [11] [µM·kg·h/mg],bioavailability [11] [%],"half-life ([5]; human, liver microsomes, read-out: Liver Microsome Stability (t1/2)) [min]",clearance [11] [mL/min/kg],half-life [11] [min],Hepatocyte Stability (t1/2) ([2]; Human) [min]
"CCC(O)C(CC)(c1ccc(C(F)(F)F)cc1)n1ncc2c(NS(C)(=O)=O)cccc21 (single isomer, unassigned) [Compound 9, N-(1-(4-hydroxy-3-(4-(trifluoromethyl)phenyl)hexan-3-yl)-1H-indazol-4-yl)methanesulfonamide]",4,> 90,61,good metabolic stability,72,61,> 90,> 90,48,65,24,good PK profile,5.3,1.3,76,–,–,–,–
"CS(=O)(=O)Nc1cccc2c1cnn2C(CC(F)F)(C(N)=O)c1ccc(C(F)(F)F)cc1 (single isomer, unassigned) [Compound 46, 4,4-difluoro-2-(4-(methylsulfonamido)-1H-indazol-1-yl)-2-(4-(trifluoromethyl)phenyl)butanamide]",76,> 90,92,good metabolic stability,–,97,> 90,> 90,> 90,135,–,good PK profile,–,1.9,31,138,6.2,252,–
"CCC(c1ccc(C(F)(F)F)cc1)(C(O)C(F)F)n1ncc2c(NS(C)(=O)=O)cccc21 (single isomer, unassigned) [Compound 47, N-(1-(1,1-difluoro-2-hydroxy-3-(4-(trifluoromethyl)phenyl)pentan-3-yl)-1H-indazol-4-yl)methanesulfonamide]",11,> 90,42,good metabolic stability,62,154,> 90,> 90,> 90,162,3.8,good PK profile,9.9,8.9,77,–,–,–,–
"CCC(c1ccc(Br)cc1)(C(C)O)n1ncc2c(NS(C)(=O)=O)cccc21 (single isomer, unassigned) [Compound 2, N-(1-(3-(4-bromophenyl)-2-hydroxypentan-3-yl)-1H-indazol-4-yl) methanesulfonamide]",7,–,23,good metabolic stability,48,53,56,> 90,45,67,–,good PK profile,–,1.0,49,–,18,216,69
